Source: paper PMC6193035, “Novel small molecules affecting cell membrane as potential therapeutics for avian pathogenic Escherichia coli” (Scientific Reports, 2018)
Values after ≈ are worked out from the molar mass of the structure shown. Where two headings read alike, the source gives them in different places. Marks after values point to notes of the source that are not given here.

Legend:
Format in all cases: cell-based, Escherichia coli
APEC O18 = experiment: Antimicrobial susceptibility, CAMHB micro-dilution (CLSI); conditions: (R) = resistant
Source text: (§1) Initially, antimicrobial susceptibility profile was established for all the tested APEC serotypes using cation-adjusted Muller-Hinton broth (CAMHB) micro-dilution method according to clinical and laboratory standards institute (CLSI) guidelines.

APEC O8 = experiment: as above; conditions: (R) = resistant
Source text: as §1

APEC O1-63 = experiment: as above; conditions: APEC O1-63, CAMHB, (R) = resistant
Source text: as §1

APEC O15 = experiment: as above; conditions: (R) = resistant
Source text: as §1

APEC O115 = experiment: as above; conditions: (R) = resistant
Source text: as §1

APEC O109 = experiment: as above; conditions: (R) = resistant
Source text: as §1

APEC O2-211 = experiment: as above; conditions: APEC O2-211, CAMHB, (R) = resistant
Source text: as §1

APEC O35 = experiment: as above; conditions: (R) = resistant
Source text: as §1

APEC O2 = experiment: as above; conditions: (R) = resistant
Source text: as §1

APEC O1 = experiment: as above; conditions: (R) = resistant
Source text: as §1

APEC O78-53 = experiment: as above; conditions: APEC O78-53, CAMHB, (R) = resistant
Source text: as §1

APEC O78 [1] = experiment: as above; conditions: (R) = resistant
Source text: as §1

E. coli ATCC 25922 = experiment: Antimicrobial susceptibility, quality control strain (CLSI); conditions: E. coli ATCC 25922 quality control strain, CAMHB
Source text: as §1

APEC O78 [2] = experiment: Loss of 260/280 nm absorbing materials assay; conditions: 2X MBC, 1 h
Method: (§2) Membrane permeability assays (crystal violet (CV) uptake and loss of 260/280 nm absorbing materials) were conducted as described previously. […] CV uptake was measured using the formula: (OD DMSO − OD SM/OD DMSO × 100). Two independent experiments in duplicates were conducted.

APEC O78 [3] = experiment: Crystal violet (CV) uptake assay; conditions: 2X MBC, 30 mins; P < 0.05, Student's t-test
Method: as §2

APEC O78 [4] = experiment: Primary screening, growth inhibition of APEC O78; conditions: separate experiment, DMSO 1% to 32%, M63 media, 12 h
Method: To identify the APEC growth inhibitors, SM library was screened against APEC O78 which is one of the most frequently isolated APEC serotypes from avian colibacillosis cases. One microlitre SMs (final concentration of 100 µM) were added using a slotted pin tool (V and P Scientific, San Diego, CA, USA) to the wells of the 96-well plate containing 100 µL of overnight grown 0.05 OD600 (7 × 10^7 CFU/mL) adjusted APEC culture. Controls (four replicates/plate) containing 1 µL of 100% DMSO (final concentration of 1%), 1 µL chloramphenicol (CHL, #C0378 Sigma-Aldrich) (20 µg/mL), 1 µL kanamycin (KAN, #60615 Sigma-Aldrich) (50 µg/mL), and 100 µL of M63 media were included. To determine the effect of DMSO on APEC growth, antimicrobial activity of DMSO was determined at different concentrations (1% to 32%) in a separate experiment. Plate was then incubated at 37 °C for 12 h in Sunrise - Absorbance microplate reader (Tecan Group Ltd. San Jose, CA) with kinetic OD600 measurement every 30 mins. The quality of screening was assessed by calculating the Z′-score as described previously. The growth inhibition of APEC was calculated by using the formula as previously described[13],[14]. The SMs inhibiting at least 80% of the APEC growth were selected as primary hits. […]

[5] = Escherichia coli, read-out: MIC
[6] = Escherichia coli, ATCC25922, read-out: MIC

Compound	MIC (APEC O18; [5])	MIC (APEC O8; [5])	MIC (APEC O1-63; [5])	MIC (APEC O15; [5])	MIC (APEC O115; [5])	MIC (APEC O109; [5])	MIC (APEC O2-211; [5])	MIC (APEC O35; [5])	MIC (APEC O2; [5])	MIC (APEC O1; [5])	MIC (APEC O78-53; [5])	MIC (APEC O78 [1]; [5])	MIC (E. coli ATCC 25922; [6])	also measured
CC1(C)S[C@@H]2[C@H](NC(=O)[C@H](N)c3ccccc3)C(=O)N2[C@H]1C(=O)O [Ampicillin, ampicillin]	4 µg/mL (≈ 11.4 µM)	4 µg/mL (≈ 11.4 µM)	4 µg/mL (≈ 11.4 µM)	2 µg/mL (≈ 5.72 µM)	> 64 µg/mL	> 64 µg/mL	4 µg/mL (≈ 11.4 µM)	2 µg/mL (≈ 5.72 µM)	> 64 µg/mL	> 64 µg/mL	4 µg/mL (≈ 11.4 µM)	> 64 µg/mL	8 µg/mL (≈ 22.9 µM)	–
CN(C)[C@@H]1C(O)=C(C(N)=O)C(=O)[C@@]2(O)C(O)=C3C(=O)c4c(O)cccc4[C@@](C)(O)[C@H]3C[C@@H]12 [Tetracycline, tetracycline]	2 µg/mL (≈ 4.5 µM)	> 64 µg/mL	16 µg/mL (≈ 36 µM)	> 64 µg/mL	> 64 µg/mL	1 µg/mL (≈ 2.25 µM)	> 64 µg/mL	1 µg/mL (≈ 2.25 µM)	> 64 µg/mL	> 64 µg/mL	> 64 µg/mL	32 µg/mL (≈ 72 µM)	0.5 µg/mL (≈ 1.13 µM)	–
O=C(O)CN(CCN(CC(=O)O)CC(=O)O)CC(=O)O [EDTA, ethylenediaminetetraacteic acid, reference compound]	–	–	–	–	–	–	–	–	–	–	–	–	–	260 nm absorbing materials in supernatant compared with DMSO (APEC O78 [2]): significantly (P < 0.05, Student’s t-test) increased; Absorbance 280 nm of treated supernatant (APEC O78 [2]; DMSO 2.58, superscript a P < 0.05 vs DMSO): 2.60; Absorbance 260 nm of treated supernatant (APEC O78 [2]; DMSO 3.77, superscript a P < 0.05 vs DMSO): 4.00^a; uptake of crystal violet compared with DMSO (APEC O78 [3]): increased the uptake of crystal violet
colistin	–	–	–	–	–	–	–	–	–	–	–	–	–	MIC (APEC O18): 1 µg/mL; MIC (APEC O8): 1 µg/mL; MIC (APEC O1-63): 4 µg/mL; MIC (APEC O15): 1 µg/mL; MIC (APEC O115): 1 µg/mL; MIC (APEC O109): 0.5 µg/mL; MIC (APEC O2-211): 4 µg/mL; MIC (APEC O35): 1 µg/mL; MIC (APEC O2): 0.5 µg/mL; MIC (APEC O1): 0.5 µg/mL; MIC (APEC O78-53): 0.5 µg/mL; MIC (APEC O78 [1]): 0.25 µg/mL; MIC (E. coli ATCC 25922): 1 µg/mL
C[S+](C)[O-] [DMSO, dimethyl sulfoxide]	–	–	–	–	–	–	–	–	–	–	–	–	–	DMSO concentration inhibitory to APEC (APEC O78 [4]): ≥ 8%
